What all share (experiment): NCI tumour cell line growth inhibition, 48 h
Assay [1] has as its system DMS 114 small cell lung.
Assay [2] has as its system DMS 273 small cell lung.
Assay [3] deals with KM20L2 colon.
Assay [4] relates to SNB-78 CNS.
The subject of assay [5] is XF 498 CNS.
Assay [6] concerns DLD-1 colon.
The test system of assay [7] is HOP-18 NSCLC.
The test system of assay [8] is RXF-631 renal.
Assay [9] relates to MDA-N.
The subject of assay [10] is P388 leukemia.
The subject of assay [11] is P388/ADR leukemia.

Structures are written as SMILES. Values joined by “and” are separate entries in the source; they are usually repeats but may differ in a detail not shown here. Equal values may be shown once.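 Cells were grown in 96-well plates and exposed to each compound for 48 hours at five concentrations; endpoints were interpolated linearly between bracketing concentrations, or set to the highest concentration if not reached. Here, GI50 denotes the concentration required for 50% inhibition of growth. TGI: concentration producing complete growth inhibition.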 A value given as a limit tells only on which side of the number the result lay.

For `CN=S(=O)(C[C@]1(O)CC2OC1C1OC(C)(C)OC21)c1ccccc1` (some centres not stated), the TGI in assay [1], in assay [2], in [3], in [4] and in [5] was more than 100 µM throughout.
For the molecule `CCC[CH2][Sn]([CH2]CCC)([S]C1=NCCS1)[S]C1=NCCS1`, the GI50 was 0.275 µM in assay [6]; 0.117 µM in [1]; 0.705 µM in assay [2]; 1.12 µM in [7]; 1.35 µM in assay [3]; 0.124 µM in [4]. Further, the GI50 in [5] is 0.159 µM. For the same molecule, the TGI in assay [6] was determined as 1.31 µM; in assay [1], 0.435 µM; in assay [2], 2.27 µM; in [7], 2.33 µM; in assay [3], 2.88 µM; in [4], 0.946 µM. The same molecule displayed a TGI in assay [5] of 0.678 µM.
Regarding `CCC(=C(c1ccc(OCc2ccccc2)cc1)c1ccc(OCc2ccccc2)cc1)c1ccc(OC)cc1`, the TGI in assay [6], in assay [1], in assay [2], in assay [3], in [4] and in [5] was more than 100 µM throughout.
Consider `C=CCN(N=O)C(=O)N(CCC)CCCCC(NC(C)=O)C(=O)NCc1ccccc1` (configuration not stated), for which the TGI in assay [1], in assay [2], in assay [7], in assay [3], in [8] and in assay [5] was more than 100 µM throughout.
Take `O=C(CC1(O)C(=O)Nc2c(Cl)cc(Cl)cc21)c1ccc2ccccc2c1` (configuration not stated): the TGI was 26.7 µM in [6]; 17.8 µM in assay [1]; 15.2 µM in assay [2]; 26.1 µM in assay [7]; 11.4 µM in assay [3]; 20.6 µM in assay [8]. Moreover, the TGI amounted to 36.5 µM in [4] and 25.2 µM in [5].
With `COC(=O)C1C(=O)O[C@@H](c2ccc(OC)cc2OC)C1C(=O)OC` (some centres not stated), the TGI in [6], in assay [1], in assay [2], in assay [7], in [3] and in assay [4] was more than 100 µM throughout. Further, the TGI in assay [5] is more than 100 µM.
In assay [9], `O=C(O)c1cccc(CC(Br)C(=O)O)c1` (configuration not stated) displayed a TGI of more than 100 µM.
`O=C(O)CC1(C(=O)O)CCCCC1`: the TGI in assay [9] was more than 100 µM.
Consider `O=C(CC(=O)C(F)(F)F)c1csc2ccccc12`, for which the TGI in assay [1], in assay [2], in [3] and in [4] was more than 100 µM in each case.
As for `COc1ccccc1NC(=O)C1=C(C)NC(C)=C(C(=O)Nc2ccccc2OC)C1c1ccccc1OC`, the TGI in assay [6], in assay [1], in assay [2], in assay [7], in assay [3] and in assay [8] was more than 100 µM each time. Also, the TGI in [4] was more than 100 µM.
For `CC(=O)Nc1ccc(/C=C/C(=O)c2sc(C(N)=S)nc2C)cc1`, the TGI in [6], in assay [1], in assay [2], in [7], in assay [3] and in assay [4] was more than 100 µM in each case.
Consider `CCOC(=O)C1=C(C)N(NC(=O)c2ccccc2)C2(O)CCCC12C(=O)OCC` (configuration not stated), for which the TGI in [1], in [2], in assay [3], in assay [8] and in [5] was more than 100 µM throughout.
Regarding `Nc1nc(N)c(-c2ccc(Cl)cc2)c(CCC(=O)Nc2cccc(C(F)(F)F)c2)n1`, the TGI in assay [6], in assay [1], in assay [2], in assay [7], in assay [3] and in assay [8] was more than 100 µM each time. For the same molecule, the TGI in assay [4] and in assay [5] was more than 100 µM throughout.
As for `CC1C2=CC=C(O2)C(C)(C)C2=CC=C(O2)C(C)(C)C2=CC=C(O2)C(C)(C)C2=CC=C1O2`, the TGI in [2], in assay [7], in assay [3], in assay [4] and in assay [5] was more than 100 µM in each case.
With `Nc1ccn([C@@H]2C=C(CO)[C@@H](O)[C@H]2O)c(=O)n1`, the GI50 was 0.0625 µM in assay [6]; 0.0677 µM in assay [1]; 0.05 µM in [9]; 63.6 µM in assay [4]; less than 0.0625 µM in [5]. The TGI is 500 µM and > 625 µM in [6]; 449 µM and > 625 µM in [1]; 218 µM and 62.5 µM in assay [2]; 500 µM in assay [7]; 500 µM and > 625 µM in [3]; 500 µM in [9]. The TGI is 1.84 µM in [10]; 2.19 µM in assay [11]; 156 µM and > 625 µM in assay [4].
Regarding `Cc1c(Cl)ccc2c1NC(=O)C2(O)C1Cc2ccccc2C1=O` (configuration not stated), the TGI in assay [6], in [1], in [7], in [3] and in [4] was more than 100 µM throughout.

Source of the values: PubChem BioAssay (NCI).
